How the values were obtained:
[1] = biological target: Serine/threonine-protein kinase pim-1 (Homo sapiens, UniProt P11309); experiment: Inhibition of Pim1 (unknown origin) using BAD peptide preincubated for 15 mins followed by ATP addition measured after 60 to 100 mins by Kinase-Glo reagent based luminescence assay
[2] = biological target: Serine/threonine-protein kinase pim-2 (Homo sapiens, UniProt Q9P1W9)
Description: Inhibition of Pim2 (unknown origin) using BAD peptide preincubated for 15 mins followed by ATP addition measured after 60 to 100 mins by Kinase-Glo reagent based luminescence assay

[3] = biological target: Serine/threonine-protein kinase pim-3 (Homo sapiens, UniProt Q86V86); experiment: Inhibition of Pim3 (unknown origin) using BAD peptide preincubated for 15 mins followed by ATP addition measured after 60 to 100 mins by Kinase-Glo reagent based luminescence assay
[4] = Hepatic extraction ratio in rat liver microsomes at 1 uM incubated for 30 mins by semi-quantitative LC-MS/MS analysis; assay type: ADME; settings: read-out: ERH
[5] = Hepatic extraction ratio in human liver microsomes at 1 uM incubated for 30 mins by semi-quantitative LC-MS/MS analysis; assay type: ADME; settings: read-out: ERH
[6] = Lipophilicity, logD of the compound; assay type: physicochemical; settings: octanol/water

Sequence of Serine/threonine-protein kinase pim-2 (Q9P1W9 whole entry): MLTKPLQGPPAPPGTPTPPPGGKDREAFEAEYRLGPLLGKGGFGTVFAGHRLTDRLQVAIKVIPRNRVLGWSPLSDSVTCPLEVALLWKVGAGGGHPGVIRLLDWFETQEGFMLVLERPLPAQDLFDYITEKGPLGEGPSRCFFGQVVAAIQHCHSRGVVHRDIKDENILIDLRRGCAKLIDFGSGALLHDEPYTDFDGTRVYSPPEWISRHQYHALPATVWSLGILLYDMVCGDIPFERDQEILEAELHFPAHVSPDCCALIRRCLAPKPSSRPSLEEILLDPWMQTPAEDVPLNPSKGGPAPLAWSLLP
Sequence of Serine/threonine-protein kinase pim-1 (P11309 whole entry): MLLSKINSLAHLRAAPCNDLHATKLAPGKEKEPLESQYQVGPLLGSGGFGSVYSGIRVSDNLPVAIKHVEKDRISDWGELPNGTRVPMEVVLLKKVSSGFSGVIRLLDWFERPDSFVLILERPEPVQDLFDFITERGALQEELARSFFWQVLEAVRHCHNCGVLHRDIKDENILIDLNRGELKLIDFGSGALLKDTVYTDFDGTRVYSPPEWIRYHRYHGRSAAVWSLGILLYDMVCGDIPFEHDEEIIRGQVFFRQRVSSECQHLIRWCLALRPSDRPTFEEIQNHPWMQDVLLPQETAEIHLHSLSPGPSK

| Ki [1] [nM] | Ki [2] [nM] | Ki [3] [nM] | hepatic extraction ratio at 0.5 h, 1 µM [4] | hepatic extraction ratio at 0.5 h, 1 µM [5] | logD [6] | Structure (SMILES) |
| --- | --- | --- | --- | --- | --- | --- |
| 8 | 317 | 21 |  |  |  | Nc1ccc(-c2ccccc2F)nc1C(=O)Nc1cnccc1-c1ccncc1 |
| < 1 | 9 | < 3 | 0.81 | 0.64 |  | Cc1cc(-c2ccncc2NC(=O)c2nc(-c3nccs3)ccc2N)nc(N)n1 |
| 6 | 50 | 5 |  |  |  | Nc1nccc(-c2ccncc2NC(=O)c2nc(-c3c(F)cccc3F)ccc2N)n1 |
| < 1 | < 3 | < 3 | 0.8 | 0.58 |  | Cc1cc(-c2ccncc2NC(=O)c2nc(-c3ccccc3F)ccc2N)nc(N)n1 |
| < 1 | < 3 | < 3 | 0.82 | 0.82 |  | Cc1nc(N)cc(-c2ccncc2NC(=O)c2nc(-c3c(F)cccc3F)ccc2N)n1 |
| < 1 | 4 | < 3 |  |  |  | COc1cc(-c2ccncc2NC(=O)c2nc(-c3c(F)cccc3F)ccc2N)cc(N)n1 |

The next lines start with the molecule.

| Structure (SMILES) | Ki [1] [nM] | Ki [2] [nM] | Ki [3] [nM] | hepatic extraction ratio at 0.5 h, 1 µM [4] | hepatic extraction ratio at 0.5 h, 1 µM [5] | logD [6] |
| --- | --- | --- | --- | --- | --- | --- |
| Nc1cc(-c2ccncc2NC(=O)c2nc(-c3c(F)cccc3F)ccc2N)ccn1 | 2 | 8 | < 3 |  |  |  |
| Nc1cncc(-c2ccncc2NC(=O)c2nc(-c3ccccc3F)ccc2N)n1 | 3 | 94 | 6 |  |  |  |
| Nc1cc(-c2ccncc2NC(=O)c2nc(-c3c(F)cccc3F)ccc2N)ncn1 | 4 | 27 | 5 |  |  |  |
| Nc1cc(-c2ccncc2NC(=O)c2nc(-c3ccccc3F)ccc2N)ccn1 | < 1 | 35 | 3 |  |  |  |
| Cc1cc(-c2ccncc2NC(=O)c2nc(-c3c(F)cccc3F)ccc2N)cc(N)n1 | < 1 | < 3 | < 3 | 0.94 | 0.96 |  |
| Nc1cc(-c2ccncc2NC(=O)c2nc(-c3ccccc3F)ccc2N)nc(N)n1 | 17 | 120 | 15 |  |  |  |
| Nc1cc(-c2ccncc2NC(=O)c2nc(-c3nccs3)ccc2N)nc(C(F)(F)F)n1 | < 1 | < 3 | < 3 | 0.89 | 0.87 |  |
| Nc1ccc(-c2ccncc2NC(=O)c2nc(-c3ccccc3F)ccc2N)cn1 | 4 | 158 | 12 |  |  |  |
| CC(=O)Nc1nc(C(=O)Nc2ccccc2N2CCCCC2)cs1 | 90 | > 12500 |  |  |  |  |
| Nc1ccc(-c2c(F)cccc2F)nc1C(=O)Nc1cnccc1-c1cccnc1N | 28 | 187 | 36 |  |  |  |
| Cc1cc(-c2ccncc2NC(=O)c2nc(-c3ccccc3F)ccc2N)cc(N)n1 | < 1 | 4 | < 3 | 0.95 | 0.95 |  |
| Nc1cc(-c2ccncc2NC(=O)c2nc(-c3c(F)cccc3F)ccc2N)nc(C(F)(F)F)n1 | < 1 | < 3 | < 3 | 0.91 | 0.77 | 4.3 |

Source: ChEMBL document CHEMBL3792348, “Design, synthesis and structure activity relationship of potent pan-PIM kinase inhibitors derived from the pyridyl carboxamide scaffold” (Bioorg Med Chem Lett, 2016)
